Results: patent publication US20200030355A1, “COMBINATION THERAPY FOR TREATING CANCER” (Epizyme, Inc., priority 2014, published 2020)

Columns and labels:
[1] = system: MOLM-13 (MLL-AF9); test: EPZ-5676 7-day pre-treatment, then second compound 72 hours, growth inhibition GI100 shift; primary screen and retest (Example 7); format: cell-based, human; conditions: second compound 72 hours; for Combination with EPZ-5676, MOLM-13 (MLL-AF9) Retest: 150 nM EPZ-5676 7-day pre-treatment, Cell Titer Glo; for Combination with EPZ-5676, MOLM-13 (MLL-AF9) Primary screen: 300 nM EPZ-5676 7-day pre-treatment, ATPLite
Experimental: (§1) Cells were then equilibrated in incubators for 24 hours before treatment with a second compound. Treated assay plates were incubated with a second compound for 72 hours. After this time, plates were developed for endpoint analysis using ATPLite to measure ATP content, which is used as an indicator of cell viability.
(§2) Cells were then treated with a second compound for 72 hours. After this time, plates were developed for endpoint analysis using Cell Titer Glo to measure ATP content, which is used as an indicator of cell viability.
(§3) “N/D” means the GI100 of the second compound could not be determined for both conditions and “-” means not tested.
(§4) Growth Inhibition (GI) as a measure of cell viability: The cell viability of vehicle was measured at the time of dosing the second agent (T0) and after seventy-two hours (T72). […] A GI 200% represents complete death of all cells in the culture well. Compounds reaching an activity plateau of GI 200% are considered cytotoxic. GI is calculated by applying the following test and equation: […]
(§5) where T is the signal measure for a test article, V is the vehicle-treated control measure, and V0 is the vehicle control measure at time zero.

[2] = system: SKM-1 (non-MLLr); test: as above; format: cell-based, human; conditions: 300 nM EPZ-5676 7-day pre-treatment; for Combination with EPZ-5676, SKM-1 (non-MLLr) Retest: Cell Titer Glo; for Combination with EPZ-5676, SKM-1 (non-MLLr) Primary screen: ATPLite
Experimental: as §1, §2, §3, §4, §5

[3] = system: OCI-AML-4 (MLL-ENL); test: as above; format: cell-based; conditions: 300 nM EPZ-5676 7-day pre-treatment, second compound 72 hours; for Combination with EPZ-5676, OCI-AML-4 (MLL-ENL) Retest: Cell Titer Glo; for Combination with EPZ-5676, OCI-AML-4 (MLL-ENL) Primary screen: ATPLite
Experimental: as §1, §2, §3, §4, §5

[4] = system: MOLM-13 (MLL-AF9); test: Combination proliferation study with Compound A2 (ATP/CellTiter-Glo, Chou-Talalay combination index); format: cell-based, human; conditions: 7 Day Cotreatment Model, Table 5
Experimental: The acute myelogenous leukemia cell lines MV4-11 (MLL-AF4) and MOLM-13 (MLL-AF9) were obtained from American Type Culture Collection (ATCC; Rockville, Md.) and Deutsche Sammlung von Mikroorganismen and Zellkulturen (DSMZ; Braunschweig, Germany) respectively.
(§6) Studies were performed using MLL-rearranged cell lines in vitro to evaluate the anti-proliferative effect of a combination of two agents together on cell growth. Initial proliferation studies were performed to determine the IC50 of a given compound in each cell line. The cell counts were measured by ATP quantitation using the Promega Cell Titer Glo kit and luminescence values corresponded to the amount of ATP in a given well.
Compounds were evaluated for synergy in the co-treatment phase by testing the compounds in a concentration range which was bracketed around their IC50 values. The compounds were plated to a 96 well plate in a matrix format (FIG. 3) which includes increasing concentrations of each drug in the combination in a constant ratio, in addition to the effect of each compound alone in the study. Cells were seeded and grown in the log-linear phase for 3 or 7 days in the co-treatment phase. Minimum inhibition (DMSO alone) controls were used in each plate to calculate fraction affected (Fa) of a test well. DMSO concentration was kept at 0.1% v/v.
The drug combination analysis was performed utilizing the Chou-Talalay method Synergy was determined using the software package Calcusyn by Biosoft. The combination index (CI) is a quantitative term used to describe the level of synergy or antagonism in a given test system. A combination index less than one indicates synergy, and a CI greater than one indicates antagonism. Further, strong synergism is achieved when the CI value falls below 0.3.
Graphs representing values of combination index (CI) versus Fractional effect (Fa) known as Fa-CI plots were generated and synergy was evaluated. Drug synergy was statistically defined by CI values less than 1, antagonism by CI>1 and additive effect by CI equal to 1.
Graphs representing values of combination index (CI) versus Fractional effect (Fa) known as Fa-CI plots were generated and synergy was evaluated. Drug synergy was statistically defined by CI values less than 1, antagonism by CI>1 and additive effect by CI equal to 1. […]
Cell viability was measured via ATP content using CellTiter-Glo® (Promega).
as §6, with “Proliferation studies” for “Studies”, “MOLM-13, MV4-11 and SKM-1” for “MLL-rearranged”, “cancer cell killing” for “anti-proliferative”, “IC50 values” for “IC50”, “correspond” for “corresponded”, “well. […]” for “well.”
Compounds evaluated for synergy in the co-treatment phase were tested in a range which was bracketed around the IC50's.

[5] = system: MOLM-13 cells; test: EPZ-5676 300 nM 7-day pre-treatment, then second compound 72 hours, ATPLite, IC50 shift (Example 6); format: cell-based, human; conditions: 300 nM EPZ-5676 or DMSO 7-day pre-treatment, then 2nd compound 72 hours, Synergy = IC50 of 2nd compound decreased by 2-fold or more vs DMSO control
Experimental: as §1
(§7) “N/D” means that IC50 of the second compound could not be determined for both conditions.

[6] = system: SKM-1 cells; test: as above; format: cell-based, human; conditions: SKM-1 cells; 300 nM EPZ-5676 or DMSO 7-day pre-treatment, then 2nd compound 72 hours, ATPLite; Synergy = IC50 of 2nd compound decreased by 2-fold or more vs DMSO control
Experimental: as §1, §7

Compound | Combination with EPZ-5676, MOLM-13 (MLL-AF9) Retest [1] | Combination with EPZ-5676, SKM-1 (non-MLLr) Retest [2] | Combination with EPZ-5676, OCI-AML-4 (MLL-ENL) Retest [3] | Combination with Compound A2, MOLM13 [4] | MOLM-13 (summary of combination study: EPZ-5676 + 2nd compound) [5] | SKM-1 (summary of combination study: EPZ-5676 + 2nd compound) [6] | Combination with EPZ-5676, MOLM-13 (MLL-AF9) Primary screen [1] | Combination with EPZ-5676, SKM-1 (non-MLLr) Primary screen [2] | Combination with EPZ-5676, OCI-AML-4 (MLL-ENL) Primary screen [3]
Cn1cnc2c(F)c(Nc3ccc(Br)cc3F)c(C(=O)NOCCO)cc21 [Binimetinib (MEK-162), Binimetinib] | Synergy (considered synergistic if the GI100 (Growth inhibition 100) value of the second compound decreased by 2-fold or more when EPZ-5676 was added as compared to the DMSO control) | Synergy (considered synergistic if the GI100 (Growth inhibition 100) value of the second compound decreased by 2-fold or more when EPZ-5676 was added as compared to the DMSO control) | Synergy (considered synergistic if the GI100 (Growth inhibition 100) value of the second compound decreased by 2-fold or more when EPZ-5676 was added as compared to the DMSO control) |  |  |  |  |  | 
Cn1nccc1Nc1nccc(-c2ccn([C@H](CO)c3ccc(Cl)c(F)c3)c(=O)c2)n1 [GDC0994] |  | Synergy (considered synergistic if the GI100 (Growth inhibition 100) value of the second compound decreased by 2-fold or more when EPZ-5676 was added as compared to the DMSO control) | Synergy (considered synergistic if the GI100 (Growth inhibition 100) value of the second compound decreased by 2-fold or more when EPZ-5676 was added as compared to the DMSO control) |  |  |  |  |  | 
NC1(c2ccc(-c3nc4ccn5c(=O)[nH]nc5c4cc3-c3ccccc3)cc2)CCC1 [MK2206] |  |  |  | Additive (additive effect by CI equal to 1) | Synergy (considered synergistic if the IC50 value of the second compound decreased by 2-fold or more when EPZ-5676 was added as compared to the DMSO control) | Synergy (considered synergistic if the IC50 value of the second compound decreased by 2-fold or more when EPZ-5676 was added as compared to the DMSO control) |  |  | 
Cn1c(Nc2ccc(C(F)(F)F)cc2)nc2cc(Oc3ccnc(-c4ncc(C(F)(F)F)[nH]4)c3)ccc21 [RAF265] |  |  |  |  |  |  | Synergy (considered synergistic if the GI100 (Growth inhibition 100) value of the second compound decreased by 2-fold or more when EPZ-5676 was added as compared to the DMSO control) |  | 
O=C(Nc1ccc2[nH]nc(-c3ccncc3)c2c1)[C@@H]1CCN(CC(=O)N2CCN(c3ccc(-c4ncccn4)cc3)CC2)C1 [SCH772984] | Synergy (considered synergistic if the GI100 (Growth inhibition 100) value of the second compound decreased by 2-fold or more when EPZ-5676 was added as compared to the DMSO control) | Synergy (considered synergistic if the GI100 (Growth inhibition 100) value of the second compound decreased by 2-fold or more when EPZ-5676 was added as compared to the DMSO control) | Synergy (considered synergistic if the GI100 (Growth inhibition 100) value of the second compound decreased by 2-fold or more when EPZ-5676 was added as compared to the DMSO control) |  | Synergy (considered synergistic if the IC50 value of the second compound decreased by 2-fold or more when EPZ-5676 was added as compared to the DMSO control) | Synergy (considered synergistic if the IC50 value of the second compound decreased by 2-fold or more when EPZ-5676 was added as compared to the DMSO control) | Synergy (considered synergistic if the GI100 (Growth inhibition 100) value of the second compound decreased by 2-fold or more when EPZ-5676 was added as compared to the DMSO control) | Synergy (considered synergistic if the GI100 (Growth inhibition 100) value of the second compound decreased by 2-fold or more when EPZ-5676 was added as compared to the DMSO control) | Synergy (considered synergistic if the GI100 (Growth inhibition 100) value of the second compound decreased by 2-fold or more when EPZ-5676 was added as compared to the DMSO control)
Cn1cnc2c(F)c(Nc3ccc(Br)cc3Cl)c(C(=O)NOCCO)cc21 [Selumetinib (AZD6244), Selumetinib] | Synergy (considered synergistic if the GI100 (Growth inhibition 100) value of the second compound decreased by 2-fold or more when EPZ-5676 was added as compared to the DMSO control) | Synergy (considered synergistic if the GI100 (Growth inhibition 100) value of the second compound decreased by 2-fold or more when EPZ-5676 was added as compared to the DMSO control) | Synergy (considered synergistic if the GI100 (Growth inhibition 100) value of the second compound decreased by 2-fold or more when EPZ-5676 was added as compared to the DMSO control) |  | Synergy (considered synergistic if the IC50 value of the second compound decreased by 2-fold or more when EPZ-5676 was added as compared to the DMSO control) |  | Synergy (considered synergistic if the GI100 (Growth inhibition 100) value of the second compound decreased by 2-fold or more when EPZ-5676 was added as compared to the DMSO control) | Synergy (considered synergistic if the GI100 (Growth inhibition 100) value of the second compound decreased by 2-fold or more when EPZ-5676 was added as compared to the DMSO control) | Synergy (considered synergistic if the GI100 (Growth inhibition 100) value of the second compound decreased by 2-fold or more when EPZ-5676 was added as compared to the DMSO control)
CNC(=O)c1cc(Oc2ccc(NC(=O)Nc3ccc(Cl)c(C(F)(F)F)c3)cc2)ccn1 [Sorafenib] | Synergy (considered synergistic if the GI100 (Growth inhibition 100) value of the second compound decreased by 2-fold or more when EPZ-5676 was added as compared to the DMSO control) |  |  |  | Synergy (considered synergistic if the IC50 value of the second compound decreased by 2-fold or more when EPZ-5676 was added as compared to the DMSO control) |  | Synergy (considered synergistic if the GI100 (Growth inhibition 100) value of the second compound decreased by 2-fold or more when EPZ-5676 was added as compared to the DMSO control) |  | 
CC(C)Nc1cc(-c2c[nH]c(C(=O)N[C@H](CO)c3cccc(Cl)c3)c2)c(Cl)cn1 [Ulixertinib] | Synergy (considered synergistic if the GI100 (Growth inhibition 100) value of the second compound decreased by 2-fold or more when EPZ-5676 was added as compared to the DMSO control) | Synergy (considered synergistic if the GI100 (Growth inhibition 100) value of the second compound decreased by 2-fold or more when EPZ-5676 was added as compared to the DMSO control) | Synergy (considered synergistic if the GI100 (Growth inhibition 100) value of the second compound decreased by 2-fold or more when EPZ-5676 was added as compared to the DMSO control) |  |  |  |  |  | 
